Assay results reported in publication PMC4884984, “Identification of approved and investigational drugs that inhibit hypoxia-inducible factor-1 signaling” (Oncotarget, 2016).
Like-named read-outs stand apart in the source and are kept apart here.

Tests used:
HIF-1α–NanoLuc = HIF-1α–NanoLuc reporter gene assay (qHTS primary and confirmatory screens); assay type: cell-based, human; conditions: Homo sapiens
[1] = tested on: hypoxia response element-beta-lactamase (HRE–bla); experiment: HRE-bla reporter gene assay in ME-180 cells; assay type: cell-based, human; conditions: for Emax / IC50: Homo sapiens
[2] = tested on: HIF-1α–NanoLuc HCT116 cells; experiment: Viability (Luc): CellTiter-Glo counter screen in HIF-1α–NanoLuc cells; assay type: cell-based, human; conditions: for Viability (Luc) confirmatory IC50: Table S7, 1% O2, 18 h
HRE–bla ME-180 cells = experiment: Viability (BLA): CellTiter-Glo counter screen in HRE–bla cells; assay type: cell-based, human; conditions: for Viability (BLA) confirmatory IC50: Table S7, 1% O2, 18 h; for IC50 / Emax: Homo sapiens, ME-180, Table S7, confirmatory screen; for IC50: 1% O2, 18 h; for Emax: read-out: Viability (BLA) confirmatory Efficacy
HCT116 cells = experiment: Cancer cell proliferation assay, HCT116; assay type: cell-based, human; conditions: for IC50 / Emax: Homo sapiens; for Emax: read-out: HCT116 3-Day Viability Efficacy
ME-180 cells = experiment: Cancer cell proliferation assay, ME-180; assay type: cell-based; conditions: Homo sapiens; for Emax: read-out: ME-180 3-Day Viability Efficacy
[3] = tested on: co-cultures of human aortic endothelial cells and human mesenchymal stem cells; experiment: In vitro angiogenesis co-culture assay (tube formation); assay type: cell-based; conditions: Homo sapiens, 72 h, Table 1, three-day exposure; for IC50: tube formation; for Emax: percentage of inhibition compared to DMSO controls, read-out: Angiogenesis Efficacy (converted)
[4] = HCT-116, Table 1, HCT116 reporter cells, hypoxia 1% O2, 18 h, confirmatory, read-out: HIF-1α-NanoLuc IC50
[5] = Table 1, percentage of inhibition compared to DMSO controls, read-out: HIF-1α-NanoLuc Efficacy (converted)
[6] = Table S2, primary screen, read-out: Pathway inhibitors (primary screen) HIF-1α–NanoLuc Activity Efficacy
[7] = Table S2, primary screen, read-out: Pathway inhibitors (primary screen) HIF-1α–NanoLuc Activity IC50
[8] = Table S2, validation, read-out: Pathway inhibitors (validation) HIF-1α–NanoLuc Activity Efficacy
[9] = Table S7, confirmatory screen, read-out: HIF-1α–NanoLuc confirmatory Efficacy
[10] = Table S7, primary screen, read-out: HIF-1α–NanoLuc primary Efficacy
[11] = HCT-116, Table 1, 72 h, read-out: 72-hr Viability HCT116 IC50
[12] = ME-180, Table 1, 72 h, read-out: 72-hr Viability ME-180 IC50
[13] = 18 h, read-out: IC50 (primary screen, HIF-1α–NanoLuc assay)
[14] = read-out: Efficacy (primary screen, HIF-1α–NanoLuc assay)
[15] = read-out: HIF-1α–NanoLuc confirmatory Efficacy
[16] = read-out: HIF-1α–NanoLuc primary Efficacy
[17] = ME-180, Table S7, confirmatory screen, read-out: HRE–bla confirmatory Efficacy
[18] = ME-180, Table S7, confirmatory screen, read-out: HRE–bla confirmatory IC50
[19] = HCT-116, 72 h, Table S8, 3 days
[20] = HCT-116, 72 h, Table S8, 3 days, read-out: HCT116 3-Day Viability IC50
[21] = ME-180, 72 h, Table S8, 3 days, read-out: ME-180 3-Day Viability IC50
[22] = ME-180, Table 1, percentage of inhibition compared to DMSO controls, read-out: HRE-bla Efficacy (converted)
[23] = Table 1, ME-180 cells, 1% O2, 18 h, read-out: HRE-bla IC50

Row | IC50 (HIF-1α–NanoLuc; [7]) | IC50 (HCT116 cells; [11]) | IC50 (ME-180 cells; [12]) | SMILES | Emax (HIF-1α–NanoLuc; [6]) | Emax (HIF-1α–NanoLuc; [8]) | Emax (HIF-1α–NanoLuc; [9]) | Emax (HIF-1α–NanoLuc; [10]) | Viability (Luc) confirmatory IC50 [2] | Emax [1, 17] | IC50 [1, 18] | IC50 (HRE–bla ME-180 cells) | Emax (HCT116 cells; [19]) | IC50 (HCT116 cells; [20]) | Emax (ME-180 cells; ME-180, 72 h, Table S8, 3 days) | IC50 (ME-180 cells; [21]) | other results
1 | 40 nM | 22800 ± 3890 nM | 270 ± 60 nM | Cn1cnc2c(F)c(Nc3ccc(Br)cc3Cl)c(C(=O)NOCCO)cc21 [Selumetinib] | 62% | 48 ± 10% | 48 ± 10% | 62% | Inactive | – | – | – | – | – | – | – | IC50 (HIF-1α–NanoLuc; [4]): 1490 ± 1300 nM; Emax (HIF-1α–NanoLuc; [5]): 48%; HRE-bla IC50 ([1]; Table 1, ME-180 cells, 1% O2, 18 h): Inactive; Viability (BLA) confirmatory IC50 (HRE–bla ME-180 cells): Inactive; IC50 [3]: 10 nM; Emax [3]: 92%
2 | 840 nM | – | – | O=C(NOCC1CC1)c1ccc(F)c(F)c1Nc1ccc(I)cc1Cl [PD 184352] | 64% | 99 ± 2% | 99 ± 2% | 64% | Inactive | 74 ± 5% | 5980 ± 690 nM | 5930 ± 4080 nM | 97 ± 4% | 13200 nM | 100 ± 7% | 18000 ± 1170 nM | IC50 (HIF-1α–NanoLuc; Table S2, validation, read-out: Pathway inhibitors (validation) HIF-1α–NanoLuc Activity IC50): 13700 ± 930 nM
3 | 1680 nM | 37200 nM | 19000 ± 4340 nM | CCN(CC)CCNC(=O)c1c(C)[nH]c(/C=C2\C(=O)Nc3ccc(F)cc32)c1C [Sunitinib] | 60% | 80 ± 15% | 80 ± 15% | 60% | – | 81 ± 32% | – | 16000 ± 8130 nM | – | – | – | – | IC50 (HIF-1α–NanoLuc; [4]): 11300 ± 3710 nM; Emax (HIF-1α–NanoLuc; [5]): 80%; Emax [1, 22]: 81%; IC50 [1, 23]: 17000 ± 3170 nM; IC50 ([2]; Homo sapiens, HCT-116, Table S7, confirmatory screen, 1% O2, 18 h): 26400 ± 9410 nM; Emax ([2]; Homo sapiens, HCT-116, Table S7, confirmatory screen, read-out: Viability (Luc) confirmatory Efficacy): 26 ± 7%; Emax (HRE–bla ME-180 cells): 60 ± 38%; HCT116 3-Day Viability IC50 (HCT116 cells; Table S8, 3 days): Inactive

The next lines start with the compound.

Row | SMILES | IC50 (HIF-1α–NanoLuc; [7]) | IC50 (HCT116 cells; [11]) | IC50 (ME-180 cells; [12]) | Emax (HIF-1α–NanoLuc; [6]) | Emax (HIF-1α–NanoLuc; [8]) | Emax (HIF-1α–NanoLuc; [9]) | Emax (HIF-1α–NanoLuc; [10]) | Viability (Luc) confirmatory IC50 [2] | Emax [1, 17] | IC50 [1, 18] | IC50 (HRE–bla ME-180 cells) | Emax (HCT116 cells; [19]) | IC50 (HCT116 cells; [20]) | Emax (ME-180 cells; ME-180, 72 h, Table S8, 3 days) | IC50 (ME-180 cells; [21]) | other results
4 | C[C@@H]1O[C@@H](O[C@@H]2C=C3CC[C@@H]4[C@H](CC[C@]5(C)[C@@H](c6ccc(=O)oc6)CC[C@]45O)[C@@]3(C)CC2)[C@H](O)[C@H](O)[C@H]1O [Proscillaridin A] | – | – | – | – | – | – | – | Inactive | 93 ± 3% | 10 nM | 20 nM | 87 ± 20% | 90 ± 30 nM | 98 ± 2% | 20 nM | IC50 (HIF-1α–NanoLuc; [13]): 10 nM; Emax (HIF-1α–NanoLuc; [14]): 101%; Emax (HIF-1α–NanoLuc; [15]): 103 ± 3%; IC50 (HIF-1α–NanoLuc; read-out: HIF-1α–NanoLuc confirmatory IC50): 10 nM; Emax (HIF-1α–NanoLuc; [16]): 101%; IC50 (HIF-1α–NanoLuc; read-out: HIF-1α–NanoLuc primary IC50): 10 nM
5 | Nc1ncn([C@@H]2O[C@H](CO)[C@@H](O)[C@H]2O)c(=O)n1 [5-Azacitidine] | – | 13300 ± 1520 nM | 18600 nM | – | – | – | – | – | 94 ± 2% | – | – | – | – | – | – | Emax [1, 22]: 94%; IC50 [1, 23]: 11000 ± 750 nM; Viability (BLA) confirmatory IC50 (HRE–bla ME-180 cells): Inactive; IC50 [3]: 4060 ± 1490 nM; Emax [3]: 80%
6 | COc1cccc2c1C(=O)c1c(O)c3c(c(O)c1C2=O)C[C@@](O)(C(C)=O)C[C@@H]3O[C@H]1C[C@H](N)[C@H](O)[C@H](C)O1 [Daunorubicin] | – | – | – | – | – | – | – | Inactive | 80 ± 5% | 1000 ± 440 nM | 3280 ± 1230 nM | 79 ± 28% | 2430 ± 1400 nM | 101 ± 4% | 170 ± 80 nM | IC50 (HIF-1α–NanoLuc; [13]): 750 nM; Emax (HIF-1α–NanoLuc; [14]): 51%; Emax (HIF-1α–NanoLuc; [15]): 98 ± 8%; Emax (HIF-1α–NanoLuc; [16]): 51%; Emax (HIF-1α–NanoLuc; read-out: Pathway inhibitors (primary screen) HIF-1α–NanoLuc Activity Efficacy): 50%; Emax (HIF-1α–NanoLuc; read-out: Pathway inhibitors (validation) HIF-1α–NanoLuc Activity Efficacy): 98 ± 8%; IC50 (HIF-1α–NanoLuc; read-out: Pathway inhibitors (validation) HIF-1α–NanoLuc Activity IC50): 1960 ± 350 nM
7 | COC[C@H]1OC(=O)c2coc3c2[C@@]1(C)C1=C(C3=O)[C@@H]2CCC(=O)[C@@]2(C)C[C@H]1OC(C)=O [Wortmannin] | – | – | – | – | – | – | – | – | 91 ± 8% | 570 ± 170 nM | 11400 ± 4790 nM | – | – | 80 ± 3% | 7000 ± 4330 nM | Emax (HRE–bla ME-180 cells): 47 ± 11%; HCT116 3-Day Viability IC50 (HCT116 cells; Table S8, 3 days): Inactive
